# Source: PubChem BioAssay AID1963977 (Molecular Pharmacology Branch, DTP, NCI, 2024)
# Where “and” joins values, the source holds several entries; their conditions need not be identical. Equal entries are not always repeated.
# Tested on: 624824-186-R-J3-PDC multicell spheroids, viability
# Experiment: Anticancer human tumor 624824-186-R-J3-PDC patient-derived colon adenocarcinoma cell line growth inhibition [PI3K]
# Conditions: for viability, T/C: stronger effect = lower value
# Method in brief: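 Targeted small molecules plus PI3K inhibitors, half-log dose series from Cmax (default top 10 microM), were applied to heterotypic spheroids of cancer cells with HUVEC and MSCs. Viability indicated growth inhibition.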
# [1] = curve of first compound, second compound 0.00316 µM
# [2] = curve of first compound, second compound 0.01 µM
# [3] = curve of first compound, second compound 0.0316 µM
# [4] = curve of first compound, second compound 0.1 µM
# [5] = curve of first compound, second compound 0.316 µM
# [6] = curve of first compound, second compound 1 µM
# [7] = second compound 0.00316 µM, first compound 0.0316 µM
# [8] = second compound 0.00316 µM, first compound 0.1 µM
# [9] = second compound 0.00316 µM, first compound 0.316 µM
# [10] = second compound 0.00316 µM, first compound 1 µM
# [11] = second compound 0.00316 µM, first compound 3.16 µM
# [12] = second compound 0.00316 µM, first compound 10 µM
# [13] = second compound 0.01 µM, first compound 0.0316 µM
# [14] = second compound 0.01 µM, first compound 0.1 µM
# [15] = second compound 0.01 µM, first compound 0.316 µM
# [16] = second compound 0.01 µM, first compound 1 µM
# [17] = second compound 0.01 µM, first compound 3.16 µM
# [18] = second compound 0.01 µM, first compound 10 µM
# [19] = second compound 0.0316 µM, first compound 0.0316 µM
# [20] = second compound 0.0316 µM, first compound 0.1 µM
# [21] = second compound 0.0316 µM, first compound 0.316 µM
# [22] = second compound 0.0316 µM, first compound 1 µM
# [23] = second compound 0.0316 µM, first compound 3.16 µM
# [24] = second compound 0.0316 µM, first compound 10 µM
# [25] = second compound 0.1 µM, first compound 0.0316 µM
# [26] = second compound 0.1 µM, first compound 0.1 µM
# [27] = second compound 0.1 µM, first compound 0.316 µM
# [28] = second compound 0.1 µM, first compound 1 µM
# [29] = second compound 0.1 µM, first compound 3.16 µM
# [30] = second compound 0.1 µM, first compound 10 µM
# [31] = second compound 0.316 µM, first compound 0.0316 µM
# [32] = second compound 0.316 µM, first compound 0.1 µM
# [33] = second compound 0.316 µM, first compound 0.316 µM
# [34] = second compound 0.316 µM, first compound 1 µM
# [35] = second compound 0.316 µM, first compound 3.16 µM
# [36] = second compound 0.316 µM, first compound 10 µM
# [37] = second compound 1 µM, first compound 0.0316 µM
# [38] = second compound 1 µM, first compound 0.1 µM
# [39] = second compound 1 µM, first compound 0.316 µM
# [40] = second compound 1 µM, first compound 1 µM
# [41] = second compound 1 µM, first compound 3.16 µM
# [42] = second compound 1 µM, first compound 10 µM
# 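Further: spheroids exposed to agents for seven days before luminescence read.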
# 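Wherever viability, T/C is given: luminescent signal used as a stand-in for spheroid viability; percent viability relative to DMSO vehicle control wells taken as 100%.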
structure (smiles),measurement,setting,value
Cn1nccc1Nc1nccc(-c2ccn(C(CO)c3ccc(Cl)c(F)c3)c(=O)c2)n1 (stereo not drawn) + COc1c(OCCCN2CCOCC2)ccc2c3n(c(=NC(=O)c4cnc(N)nc4)nc12)CCN3,IC50,[1],6980 nM
same,IC50,[2],1360 nM
same,IC50,[3],400 nM
same,IC50,[4],153 nM
same,IC50,[5],< 31.6 nM
same,IC50,[6],< 31.6 nM
same,"viability, T/C",[7],111%
same,"viability, T/C",[8],84.7%
same,"viability, T/C",[9],100%
same,"viability, T/C",[10],72.8%
same,"viability, T/C",[11],57.7%
same,"viability, T/C",[12],46.6%
same,"viability, T/C",[13],112%
same,"viability, T/C",[14],100%
same,"viability, T/C",[15],87.5%
same,"viability, T/C",[16],51.4%
same,"viability, T/C",[17],41.8%
same,"viability, T/C",[18],34.4%
same,"viability, T/C",[19],90.2%
same,"viability, T/C",[20],83.8%
same,"viability, T/C",[21],56.2%
same,"viability, T/C",[22],26.4%
same,"viability, T/C",[23],25.1%
same,"viability, T/C",[24],21.8%
same,"viability, T/C",[25],74.5%
same,"viability, T/C",[26],58%
same,"viability, T/C",[27],35.9%
same,"viability, T/C",[28],14.2%
same,"viability, T/C",[29],10.7%
same,"viability, T/C",[30],9.81%
same,"viability, T/C",[31],46.3%
same,"viability, T/C",[32],38.4%
same,"viability, T/C",[33],18.3%
same,"viability, T/C",[34],7.62%
same,"viability, T/C",[35],4.31%
same,"viability, T/C",[36],2.66%
same,"viability, T/C",[37],26%
same,"viability, T/C",[38],20.9%
same,"viability, T/C",[39],13.4%
same,"viability, T/C",[40],6.73%
same,"viability, T/C",[41],3.58%
same,"viability, T/C",[42],2.38%
CC(C)n1nc(-c2ccc3oc(N)nc3c2)c2c(N)ncnc21 + CC(Nc1ccc2c(c1)OCCn1cc(N3C(=O)OCC3C(F)F)nc1-2)C(N)=O,IC50,[1],> 100 nM
same,IC50,[2],> 100 nM
same,IC50,[3],91.7 nM
same,IC50,[4],81.1 nM
same,IC50,[5],71 nM
same,IC50,[6],42.2 nM
same,"viability, T/C","second compound 0.00316 µM, first compound 0.000316 µM",99.7%
same,"viability, T/C","second compound 0.00316 µM, first compound 0.001 µM",96.8%
same,"viability, T/C","second compound 0.00316 µM, first compound 0.00316 µM",102%
same,"viability, T/C","second compound 0.00316 µM, first compound 0.01 µM",101%
same,"viability, T/C",[7],96.2%
same,"viability, T/C",[8],53.6%
same,"viability, T/C","second compound 0.01 µM, first compound 0.000316 µM",97.3%
same,"viability, T/C","second compound 0.01 µM, first compound 0.001 µM",102%
same,"viability, T/C","second compound 0.01 µM, first compound 0.00316 µM",103%
same,"viability, T/C","second compound 0.01 µM, first compound 0.01 µM",105%
same,"viability, T/C",[13],93.6%
same,"viability, T/C",[14],59.8%
same,"viability, T/C","second compound 0.0316 µM, first compound 0.000316 µM",105%
same,"viability, T/C","second compound 0.0316 µM, first compound 0.001 µM",106%
same,"viability, T/C","second compound 0.0316 µM, first compound 0.00316 µM",98.2%
same,"viability, T/C","second compound 0.0316 µM, first compound 0.01 µM",99.9%
same,"viability, T/C",[19],93.2%
same,"viability, T/C",[20],46.5%
same,"viability, T/C","second compound 0.1 µM, first compound 0.000316 µM",99.2%
same,"viability, T/C","second compound 0.1 µM, first compound 0.001 µM",106%
same,"viability, T/C","second compound 0.1 µM, first compound 0.00316 µM",101%
same,"viability, T/C","second compound 0.1 µM, first compound 0.01 µM",96.3%
same,"viability, T/C",[25],84.5%
same,"viability, T/C",[26],42.3%
same,"viability, T/C","second compound 0.316 µM, first compound 0.000316 µM",92.4%
same,"viability, T/C","second compound 0.316 µM, first compound 0.001 µM",92.7%
same,"viability, T/C","second compound 0.316 µM, first compound 0.00316 µM",90.7%
same,"viability, T/C","second compound 0.316 µM, first compound 0.01 µM",84.9%
same,"viability, T/C",[31],83%
same,"viability, T/C",[32],36.2%
same,"viability, T/C","second compound 1 µM, first compound 0.000316 µM",85.8%
same,"viability, T/C","second compound 1 µM, first compound 0.001 µM",86.9%
same,"viability, T/C","second compound 1 µM, first compound 0.00316 µM",86.5%
same,"viability, T/C","second compound 1 µM, first compound 0.01 µM",70.5%
same,"viability, T/C",[37],59.5%
same,"viability, T/C",[38],26.2%
C=CC(=O)N1CCN(c2nc(=O)n(-c3c(C)ccnc3C(C)C)c3nc(-c4c(O)cccc4F)c(F)cc23)C(C)C1 (stereo not drawn) + CC(Nc1ccc2c(c1)OCCn1cc(N3C(=O)OCC3C(F)F)nc1-2)C(N)=O,IC50,[1],> 10000 nM
same,IC50,[2],> 10000 nM
same,IC50,[3],> 10000 nM
same,IC50,[4],> 10000 nM
same,IC50,[5],> 10000 nM
same,IC50,[6],> 10000 nM
same,"viability, T/C",[7],103%
same,"viability, T/C",[8],94.4%
same,"viability, T/C",[9],98.8%
same,"viability, T/C",[10],88.2%
same,"viability, T/C",[11],99.7%
same,"viability, T/C",[12],105%
same,"viability, T/C",[13],105%
same,"viability, T/C",[14],99.2%
same,"viability, T/C",[15],96.9%
same,"viability, T/C",[16],94%
same,"viability, T/C",[17],99.6%
same,"viability, T/C",[18],106%
same,"viability, T/C",[19],97%
same,"viability, T/C",[20],98.5%
same,"viability, T/C",[21],102%
same,"viability, T/C",[22],96%
same,"viability, T/C",[23],113%
same,"viability, T/C",[24],99.6%
same,"viability, T/C",[25],91.7%
same,"viability, T/C",[26],97.2%
same,"viability, T/C",[27],107%
same,"viability, T/C",[28],102%
same,"viability, T/C",[29],107%
same,"viability, T/C",[30],104%
same,"viability, T/C",[31],90.1%
same,"viability, T/C",[32],96.8%
same,"viability, T/C",[33],94.5%
same,"viability, T/C",[34],94%
same,"viability, T/C",[35],108%
same,"viability, T/C",[36],98.4%
same,"viability, T/C",[37],95.1%
same,"viability, T/C",[38],83.7%
same,"viability, T/C",[39],87.4%
same,"viability, T/C",[40],87%
same,"viability, T/C",[41],87.4%
same,"viability, T/C",[42],91.3%
CCN1CCN(Cc2ccc(Nc3ncc(F)c(-c4cc(F)c5nc(C)n(C(C)C)c5c4)n3)nc2)CC1,"viability, T/C",compound 0.00316 µM,108% (2×) and 105% and 107%
same,"viability, T/C",compound 0.01 µM,106% [middle of 4 runs]
same,"viability, T/C",compound 0.0316 µM,112% (2×) and 105% and 115%
same,"viability, T/C",compound 0.1 µM,107% [middle of 4 runs]
same,"viability, T/C",compound 0.316 µM,104% [middle of 4 runs]
same,"viability, T/C",compound 1 µM,104% [middle of 4 runs]
same,IC50,curve of compound,> 1000 nM
